Laboratory results as given in patent US10807992B2, “Single enantiomer antiparasitic compounds” (priority 2017, dated 2020).

What was measured:
Ctenocephalides felis [1] = assay: In vitro ingestion activity against fleas (artificial feeding, bovine blood); conditions: for mortality at 0.003 ppm: Trial 3, dose 0.003 ppm; for mortality at 0.012 ppm: Trial 3, dose 0.012 ppm; for mortality at 0.049 ppm: Trial 3, dose 0.049 ppm; for mortality at 0.2 ppm: Trial 3, dose 0.20 ppm; for mortality at 0.78 ppm: Trial 3, dose 0.78 ppm; for mortality at 3.125 ppm: Trial 3, dose 3.125 ppm; for mortality at 12.5 ppm: Trial 3, dose 12.5 ppm; for mortality at 50 ppm: Trial 3, dose 50 ppm
Description: (§1) Ctenocephalides felis (Avista Pharma, Inc., RTP, NC), 1-7days post hatch, held in an environmental chamber at 24° C., 85% humidity.
For flea ingestion tests, serial dilutions of the compound stock were performed using DMSO to achieve the desired range for EC50 and EC90 determination. An aliquot of each compound dilution was added to organic bovine blood with a final DMSO concentration of 0.5% and placed in an artificial feeding container.
(§2) Compounds tested were C1 racemate, the C1 (R) enantiomer, and the C1 (S) enantiomer. For Trial 3, the C1 (R) enantiomer and the C1 (S) enantiomer were further chiral purified to achieve >99% purity.
(§3) For both contact and ingestion assays, ten newly emerged unfed adult fleas, 0-7 days old Ctenocephalides felis, from a laboratory colony, were aspirated into each vial or cage. The test vials for contact assays were held in an environmental chamber at 24° C., 80% humidity with light/dark cycles (12 hours each). The cages for flea ingestion assays were held in a temperature-controlled artificial feeding apparatus to allow continual access to organic bovine blood containing the desired concentration of compound. Fresh aliquots of compound-spiked bovine blood were provided daily for the duration of the study.
(§4) Fleas were evaluated for percent mortality at various time points between 2 hours and 48 hours post infestation. Fleas showing normal movement and/or jumping ability were considered viable and those showing no movement after tapping the vials were scored as dead.

Ctenocephalides felis [2] = assay: In vitro contact activity against fleas (coated substrate); conditions: for mortality at 0.006 ppm: Trial 3, dose 0.006 ppm; for mortality at 0.024 ppm: Trial 3, dose 0.024 ppm; for mortality at 0.098 ppm: Trial 3, dose 0.098 ppm; for mortality at 0.39 ppm: Trial 3, dose 0.39 ppm; for mortality at 1.56 ppm: Trial 3, dose 1.56 ppm; for mortality at 6.25 ppm: Trial 3, dose 6.25 ppm; for mortality at 25 ppm: Trial 3, dose 25 ppm; for mortality at 100 ppm: Trial 3, dose 100 ppm
Description: as §1
For flea contact tests, vial caps were pre-drilled with a single hole in the center of each cap to allow air exchange. A filter paper (Whatman Grade 540 2.1 cm) was placed in the lid of each vial. Pipe cleaners cut to 0.5 inches were inserted in each test vial. An aliquot was taken from each compound stock and added to an acetone/triton solution to achieve the desired top concentrations for the study. Serial dilutions were conducted from the top dose (i.e. 100 ppm) to achieve the desired concentration for EC50 and EC90 determination. The final DMSO concentration was 0.5%. A 75 μL aliquot of each compound formulation was added to each 0.5 inch pipe cleaner contained in the treatment vial. The vials were loosely capped and allowed to dry for a minimum of four hours in a chemical fume hood.
as §2, §3, §4

## O=C(CC(F)(F)F)N1CC2(C1)OCc1cc(C3=NSC(c4cc(Cl)c(F)c(Cl)c4)(C(F)(F)F)C3)ccc12 (racemic) [C1 racemate, 1-[6-[5-(3,5-dichloro-4-fluoro-phenyl)-5-(trifluoromethyl)-4H-isothiazol-3-yl]spiro[1H-isobenzofuran-3,3′-azetidine]-1′-yl]-3,3,3-trifluoro-propan-1-one]
Ctenocephalides felis [1]; 6 h, Rep1
  mortality at 0.003 ppm: 0%
  mortality at 0.012 ppm: 0%
  mortality at 0.049 ppm: 0%
  mortality at 0.2 ppm: 10%
  mortality at 0.78 ppm: 70%
  mortality at 3.125 ppm: 90%
  mortality at 12.5 ppm: 90%
  mortality at 50 ppm: 90%
Ctenocephalides felis [1]; 6 h, Rep2
  mortality at 0.003 ppm: 0%
  mortality at 0.012 ppm: 0%
  mortality at 0.049 ppm: 0%
  mortality at 0.2 ppm: 10%
  mortality at 0.78 ppm: 90%
  mortality at 3.125 ppm: 70%
  mortality at 12.5 ppm: 100%
  mortality at 50 ppm: 70%
Ctenocephalides felis [1]; 24 h, Rep1
  mortality at 0.003 ppm: 0%
  mortality at 0.012 ppm: 0%
  mortality at 0.049 ppm: 0%
  mortality at 0.2 ppm: 30%
  mortality at 0.78 ppm: 90%
  mortality at 3.125 ppm: 90%
  mortality at 12.5 ppm: 90%
  mortality at 50 ppm: 90%
Ctenocephalides felis [1]; 24 h, Rep2
  mortality at 0.003 ppm: 0%
  mortality at 0.012 ppm: 0%
  mortality at 0.049 ppm: 10%
  mortality at 0.2 ppm: 80%
  mortality at 0.78 ppm: 90%
  mortality at 3.125 ppm: 90%
  mortality at 12.5 ppm: 100%
  mortality at 50 ppm: 80%
Ctenocephalides felis [1]; 48 h, Rep1
  mortality at 0.003 ppm: 0%
  mortality at 0.012 ppm: 0%
  mortality at 0.049 ppm: 10%
  mortality at 0.2 ppm: 80%
  mortality at 0.78 ppm: 90%
  mortality at 3.125 ppm: 90%
  mortality at 12.5 ppm: 90%
  mortality at 50 ppm: 90%
Ctenocephalides felis [1]; 48 h, Rep2
  mortality at 0.003 ppm: 0%
  mortality at 0.012 ppm: 0%
  mortality at 0.049 ppm: 10%
  mortality at 0.2 ppm: 80%
  mortality at 0.78 ppm: 100%
  mortality at 3.125 ppm: 100%
  mortality at 12.5 ppm: 100%
  mortality at 50 ppm: 90%
Ctenocephalides felis [2]; 6 h, Rep1
  mortality at 0.006 ppm: 0%
  mortality at 0.024 ppm: 0%
  mortality at 0.098 ppm: 0%
  mortality at 0.39 ppm: 0%
  mortality at 1.56 ppm: 0%
  mortality at 6.25 ppm: 0%
  mortality at 25 ppm: 0%
  mortality at 100 ppm: 0%
Ctenocephalides felis [2]; 6 h, Rep2
  mortality at 0.006 ppm: 0%
  mortality at 0.024 ppm: 0%
  mortality at 0.098 ppm: 0%
  mortality at 0.39 ppm: 0%
  mortality at 1.56 ppm: 0%
  mortality at 6.25 ppm: 0%
  mortality at 25 ppm: 0%
  mortality at 100 ppm: 0%
Ctenocephalides felis [2]; 24 h, Rep1
  mortality at 0.006 ppm: 0%
  mortality at 0.024 ppm: 0%
  mortality at 0.098 ppm: 0%
  mortality at 0.39 ppm: 0%
  mortality at 1.56 ppm: 0%
  mortality at 6.25 ppm: 0%
  mortality at 25 ppm: 0%
  mortality at 100 ppm: 70%
Ctenocephalides felis [2]; 24 h, Rep2
  mortality at 0.006 ppm: 0%
  mortality at 0.024 ppm: 0%
  mortality at 0.098 ppm: 0%
  mortality at 0.39 ppm: 0%
  mortality at 1.56 ppm: 0%
  mortality at 6.25 ppm: 0%
  mortality at 25 ppm: 0%
  mortality at 100 ppm: 40%
Ctenocephalides felis [2]; 48 h, Rep1
  mortality at 0.006 ppm: 0%
  mortality at 0.024 ppm: 0%
  mortality at 0.098 ppm: 0%
  mortality at 0.39 ppm: 0%
  mortality at 1.56 ppm: 0%
  mortality at 6.25 ppm: 0%
  mortality at 25 ppm: 80%
  mortality at 100 ppm: 100%
Ctenocephalides felis [2]; 48 h, Rep2
  mortality at 0.006 ppm: 0%
  mortality at 0.024 ppm: 0%
  mortality at 0.098 ppm: 0%
  mortality at 0.39 ppm: 0%
  mortality at 1.56 ppm: 0%
  mortality at 6.25 ppm: 0%
  mortality at 25 ppm: 70%
  mortality at 100 ppm: 100%
